In patent publication US20220154153A1, “NEW INHIBITORS OF LRRK2/PP1 INTERACTION” (Université de Paris, priority 2019, published 2022):
Entries after “also recorded” stand apart in the source; their conditions may differ.

Legend:
MDA-MB231 cells [1] = assay: Detection of apoptosis by Annexin-V-FITC staining in cancer cells; type: cell-based, human; conditions: 25 μM peptide, 24 h of treatment
Procedure: Detection of Apoptosis by Annexin-V-FITC Staining
Apoptosis was determined using Annexin-V FITC (eBiosciences) as described by the manufacturer. Briefly, cells were washed in 1× binding buffer, centrifuged and resuspended in 100 μl of 1× binding buffer containing Annexin-V FITC and propidium iodide. After incubation for 15 min, cells were analyzed by flow cytometry. Data acquired by FACS Canto were analyzed with Diva 60 software. Each condition was analyzed in triplicate. The effect of peptide treatment was compared to untreated control cells.

LRRK2/PP1 interaction = assay: In vitro competition assay of LRRK2/PP1 interaction (LRRK2 immunoprecipitates from MDA-MB231 lysates, anti-PP1 Western blot); type: binding, human; conditions: 1 mM peptide, 30 min, room temperature; compared with non-competed immunoprecipitates
Procedure: In Vitro Protein/Protein Interaction Competition
The PP1/LRRK2 interaction was competed using the peptides of the invention. Lysates from MDA-MB231 cells were immunoprecipitated with anti-LRRK2 antibody (overnight, 4° C.) and protein A/G Sepharose was added for 1 h at 4° C. The PP1/LRRK2 interaction was competed with 1 mM of the peptide for 30 min at room temperature. After several washing steps, immunoprecipitates were transferred to nitrocellulose and blotted with anti PP1 antibody (Santa Cruz Biotechnology). As internal control, the blot was also blotted with anti-LRRK2 antibody (Invitrogene).
Immunoprecipitation and Western Blotting
Cells (5×10^6) were lysed for 20 min at 4° C. in lysis buffer (50 mM Tris pH8, 1% NP40, 137 mM NaCl, 1 mM MgCl2, 1 mM CaCl2), 10% glycerol and protease inhibitor mixture). Lysates (500 μg) were immunoprecipitated with the appropriated antibody overnight at 4° C. and protein A/G sepharose was added for 1 h at 4° C. After washing with 1×TBST (20 mM Tris HCl pH7.5, 150 mM NaCl, 0.05% Tween 20) immunoprecipitates were separated by SDS-PAGE, transferred to nitrocellulose, blocked (5% non-fat dry milk in TBST) and incubated with the primary antibody (Santa Cruz Biotehnology). The membrane was washed and incubated with PO-conjugates secondary antibody (Dako). Protein detection was performed using the ECL system.

PBMC from healthy donors = assay: Internalization of FITC-labelled peptides in PBMC from healthy donors (FACS); type: cell-based, human; conditions: 4 h, 37° C.; for FITC labelled cells detected (FACS): PBMC of healthy human, 50 μM FITC labelled peptide
Procedure: (§1) Isolation and Culture of Primary Cells
(§2) Fresh blood from healthy donors (HD) was obtained from Etablissement Francais du Sang. Chronic lymphocytic leukemia (CLL) patient samples were obtained from the Department of Hematology. Peripheral blood mononuclear cells (PBMC) from HD and CLL patients were prepared by Ficoll gradient centrifugation. Cells were maintained in RPMI 1640 supplemented with 10% of FCS, 1% non-essential amino acids, 1% Hepes, 1% sodium pyruvate and 1% glutamine. All the experimental protocols as well as the human blood samples isolation were approved by the Ethical Committee of the Hospital in accordance with the National Guide of the Ministry of Health.
(§3) In addition to cell lines, the internalization of the new peptides according to the invention was further tested in peripheral blood mononuclear cells (PBMC) from healthy donors and chronic lymphocytic leukemia (CLL) patients. PBMC from both were incubated with 50 μM of both peptides for 4 h at 37° C.

MDA-MB231 cells [2] = assay: Internalization of FITC-labelled peptides in MDA-MB231 cell line (FACS); type: cell-based, human; conditions: different concentrations, 4 h, compared to peptide 13
Procedure: Quantification of Cellular Internalization
Human cell line MDA-MB231 was seeded in 24 well plate (1×10^5 cells/well) and treated with different concentrations of FITC-labelled peptides for different periods of time. After treatment, cells were harvested and washed twice with PBS to remove the extracellular unbound peptide and resuspended in 200 μl of PBS. FITC fluorescence intensity of internalized peptides was measured by flow cytometry. Untreated cells were used as control.

PBMC from CLL patients = assay: Internalization of FITC-labelled peptides in PBMC from chronic lymphocytic leukemia (CLL) patients (FACS); type: cell-based, human; conditions: 4 h, 37° C.; for FITC labelled cells detected (FACS): PBMC of CLL, 50 μM FITC labelled peptide
Procedure: as §1, §2, §3

Sequence	Apoptosis induction (Annexin-V) (MDA-MB231 cells [1])	PP1 detected in LRRK2 immunoprecipitates after competition with peptide (Western blot) (LRRK2/PP1 interaction)	FITC labelled cells detected (FACS) (PBMC from healthy donors)	Fluorescence intensity of internalization compared with peptide 13 (PBMC from healthy donors; healthy donors PBMC, 50 μM)	Fluorescence intensity of internalization (FACS) (MDA-MB231 cells [2])	Fluorescence intensity of internalization compared with peptide 13 (PBMC from CLL patients; CLL patients PBMC, 50 μM)	FITC labelled cells detected (FACS) (PBMC from CLL patients)
VKKKKIKAEIKI (Synthetic construct vectorization (or carrier) peptide disclosed in WO/2016/156536) [shuttle, optimized cell penetrating peptide used alone as control, reference compound]	do not show apoptosis	PP1 is detected; also recorded: no difference	–	–	–	–	–
VKKKKIKAEIKIGFWSRLINRLLEI (Synthetic construct Seq_29 fused to seq_8) [peptide 14]	strong level of apoptosis	important decrease in PP1 detected	majority of FITC labelled cells is detected	slightly higher fluorescence intensity	higher	slightly higher fluorescence intensity	majority of FITC labelled cells is detected
VKKKKIKAEIKIPMGFWSRLINRLLEISPY (Synthetic construct Seq_29 fused to seq_7) [peptide 13]	strong level of apoptosis	low detected; also recorded: important decrease in PP1 detected	majority of FITC labelled cells is detected	–	–	–	majority of FITC labelled cells is detected
